Article PMC7873978, “A Novel Lipoate-Protein Ligase, Mhp-LplJ, Is Required for Lipoic Acid Metabolism in Mycoplasma hyopneumoniae” (Frontiers in Microbiology, 2021)

Columns and labels:
[1] = target: T1, Mhp-LplJ (lipoate-protein ligase, MHP_RS00640) (Mesomycoplasma hyopneumoniae, UniProt E4QSS7); test: SPR (Biacore 8K, CM5, immobilized Mhp-LplJ), single-site kinetics fit; type: binding
T1 construct: gene lplA; hexa-histidine-tagged Mhp-LplJ (pET22b)
T1 sequence (E4QSS7 1-336): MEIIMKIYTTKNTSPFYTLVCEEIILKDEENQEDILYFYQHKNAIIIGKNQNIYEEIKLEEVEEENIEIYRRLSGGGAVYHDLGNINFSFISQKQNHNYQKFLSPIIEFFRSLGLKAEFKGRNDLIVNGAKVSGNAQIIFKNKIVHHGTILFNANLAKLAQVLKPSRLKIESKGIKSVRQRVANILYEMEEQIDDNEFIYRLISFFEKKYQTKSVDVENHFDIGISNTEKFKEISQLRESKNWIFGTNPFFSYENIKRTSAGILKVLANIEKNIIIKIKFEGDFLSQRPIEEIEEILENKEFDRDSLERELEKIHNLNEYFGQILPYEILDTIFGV

[2] = target: T2, E. coli LplA (lipoate-protein ligase A) (Escherichia coli, UniProt P32099); test: in vitro lipoate ligation to apo-PdhD, anti-lipoic acid western blot (positive control enzyme); type: biochemical
T2 construct: hexa-histidine-tagged E. coli LplA (pET32a)
T2 sequence (P32099 2-338): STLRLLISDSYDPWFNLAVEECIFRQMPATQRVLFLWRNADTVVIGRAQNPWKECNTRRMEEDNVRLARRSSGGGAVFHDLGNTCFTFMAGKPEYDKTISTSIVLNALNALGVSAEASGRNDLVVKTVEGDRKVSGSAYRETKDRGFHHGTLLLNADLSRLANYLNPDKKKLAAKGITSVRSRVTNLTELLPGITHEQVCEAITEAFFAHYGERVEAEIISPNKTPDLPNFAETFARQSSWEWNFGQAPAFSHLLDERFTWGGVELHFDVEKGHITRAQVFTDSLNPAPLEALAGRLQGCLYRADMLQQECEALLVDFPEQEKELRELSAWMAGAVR

[3] = target: T1, Mhp-LplJ (lipoate-protein ligase, MHP_RS00640); test: in vitro octanoate ligation to apo-PdhD, gel shift assay; type: biochemical
[4] = target: T1, Mhp-LplJ (lipoate-protein ligase, MHP_RS00640); test: SPR (Biacore 8K), single-site affinity fit; also inhibits PdhD lipoylation in vitro at […]; type: binding

SMILES: O=C(O)CCCC[C@@H]1CCSS1 [lipoic acid, (R)-5-(1,2-dithiolane-3-yl) pentanoic acid]
- Kd [1]: 24.1 ± 1.61 µM
- in vitro lipoate ligation to apo-PdhD, anti-lipoic acid western blot (positive c) [2]: PdhD was successfully modified by E. coli LplA in vitro in the presence of lipoic acid

SMILES: CCCCCCCC(=O)O [octanoic acid]
- in vitro octanoate ligation to apo-PdhD, gel shift assay [3]: Mhp-LplJ could able to catalyze the attachment of free octanoic acid to PdhD

SMILES: O=C(O)CCCCCCCBr [8-BrO, 8-bromooctanoic acid]
- Kd [4]: 29.8 ± 3.62 µM
